{"source": "paper PMC5218480", "about": "(PLoS ONE, 2017)", "tested_on": "MV-4-11 cells", "assay": "Gene expression microarray analysis (Affymetrix PrimeView) and GSEA", "assay_type": "cell-based, human", "design": "RFU PODN (11730768_x_at) / Fold change /veh PODN (11730768_x_at) / RFU LINC00158 (11744669_a_at) / Fold change /veh LINC00158 (11744669_a_at) / RFU DUSP10 (11751237_a_at) / Fold change /veh DUSP10 (11751237_a_at) / RFU ID3 (11757404_x_at) / Fold change /veh ID3 (11757404_x_at) / RFU PLEKHG5 (11737974_s_at) / Fold change /veh PLEKHG5 (11737974_s_at) / RFU LRRC4B (11730491_at) / Fold change /veh LRRC4B (11730491_at) / RFU GIMAP4 (11747438_a_at) / Fold change /veh GIMAP4 (11747438_a_at) / RFU KRT8 (11758183_x_at) / Fold change /veh KRT8 (11758183_x_at) / RFU CNN1 (11734310_a_at) / Fold change /veh CNN1 (11734310_a_at) / RFU VPS37D (11726825_at) / Fold change /veh VPS37D (11726825_at) / RFU C10orf10 (11716522_x_at) / Fold change /veh C10orf10 (11716522_x_at) / RFU KIR2DL2 /// KIR2DL4 /// KIR2DL5A /// KIR2DL5B /// KIR2DS1 /// KIR2DS2 /// KIR2DS3 /// KIR2DS4 /// KIR3DL3 /// KIR3DL3 /// KIR3DS1 (11738374_at) / Fold change /veh KIR2DL2 /// KIR2DL4 /// KIR2DL5A /// KIR2DL5B /// KIR2DS1 /// KIR2DS2 /// KIR2DS3 /// KIR2DS4 /// KIR3DL3 /// KIR3DL3 /// KIR3DS1 (11738374_at) / RFU C1QL1 (11718748_at) / Fold change /veh C1QL1 (11718748_at) / RFU TMPRSS4 (11747572_a_at) / Fold change /veh TMPRSS4 (11747572_a_at) / RFU HAMP (11756126_x_at) / Fold change /veh HAMP (11756126_x_at) / RFU RNFT2 (11725882_a_at) / Fold change /veh RNFT2 (11725882_a_at) / RFU NR4A2 (11747474_a_at) / Fold change /veh NR4A2 (11747474_a_at) / RFU ABCC12 (11746883_a_at) / Fold change /veh ABCC12 (11746883_a_at) / RFU TMEM136 (11760407_x_at) / Fold change /veh TMEM136 (11760407_x_at) / RFU CLDN22 /// WWC2 (11732394_at) / Fold change /veh CLDN22 /// WWC2 (11732394_at) / RFU HLA-DPB1 (11760878_x_at) / Fold change /veh HLA-DPB1 (11760878_x_at) / RFU SPINT1 (11716480_a_at) / Fold change /veh SPINT1 (11716480_a_at) / RFU GAP43 (11754022_s_at) / Fold change /veh GAP43 (11754022_s_at) / RFU A4GNT (11735810_at) / Fold change /veh A4GNT (11735810_at) / RFU PRB3 (11715151_x_at) / Fold change /veh PRB3 (11715151_x_at) / RFU TUBB4B (11761932_at) / Fold change /veh TUBB4B (11761932_at) / RFU CAPN14 (11732068_a_at) / Fold change /veh CAPN14 (11732068_a_at) / RFU TMCC2 (11721928_a_at) / Fold change /veh TMCC2 (11721928_a_at) / RFU IRGQ (11745062_a_at) / Fold change /veh IRGQ (11745062_a_at) / RFU FAM174B (11720279_a_at) / Fold change /veh FAM174B (11720279_a_at) / RFU TMPRSS4 (11748680_a_at) / Fold change /veh TMPRSS4 (11748680_a_at) / RFU FAM212B (11763350_a_at) / Fold change /veh FAM212B (11763350_a_at) / RFU PLEKHG5 (11743358_a_at) / Fold change /veh PLEKHG5 (11743358_a_at) / RFU ZSCAN30 (11745921_a_at) / Fold change /veh ZSCAN30 (11745921_a_at) / RFU CMKLR1 (11741424_a_at) / Fold change /veh CMKLR1 (11741424_a_at) / RFU LOC101060620 /// MAPK8IP1 (11723275_at) / Fold change /veh LOC101060620 /// MAPK8IP1 (11723275_at) / RFU SPTSSB (11747773_x_at) / Fold change /veh SPTSSB (11747773_x_at) / RFU PRSS12 (11739890_at) / Fold change /veh PRSS12 (11739890_at) / RFU BIN1 (11741810_x_at) / Fold change /veh BIN1 (11741810_x_at) / RFU WNT11 (11732464_a_at) / Fold change /veh WNT11 (11732464_a_at) / RFU C10orf10 (11716521_a_at) / Fold change /veh C10orf10 (11716521_a_at) / RFU C5orf56 (11738089_at) / Fold change /veh C5orf56 (11738089_at) / RFU CYB561 (11721691_x_at) / Fold change /veh CYB561 (11721691_x_at) / RFU ANKRD19P (11752326_a_at) / Fold change /veh ANKRD19P (11752326_a_at) / RFU OR2T12 /// OR2T33 /// OR2T8 (11738714_s_at) / Fold change /veh OR2T12 /// OR2T33 /// OR2T8 (11738714_s_at) / RFU VCAN (11748164_a_at) / Fold change /veh VCAN (11748164_a_at) / RFU JSRP1 (11732532_at) / Fold change /veh JSRP1 (11732532_at) / RFU KRTAP10-11 (11738290_x_at) / Fold change /veh KRTAP10-11 (11738290_x_at) / RFU MYO3A (11730013_a_at) / Fold change /veh MYO3A (11730013_a_at) / RFU EBF3 (11725865_a_at) / Fold change /veh EBF3 (11725865_a_at) / RFU CAMK2N1 (11719241_x_at) / Fold change /veh CAMK2N1 (11719241_x_at) / RFU C5orf56 (11738088_a_at) / Fold change /veh C5orf56 (11738088_a_at) / RFU OLFML3 (11715873_a_at) / Fold change /veh OLFML3 (11715873_a_at) / RFU LOC100653217 /// NTM (11731650_a_at) / Fold change /veh LOC100653217 /// NTM (11731650_a_at) / RFU MAPK11 (11762145_a_at) / Fold change /veh MAPK11 (11762145_a_at) / RFU FIZ1 (11724087_x_at) / Fold change /veh FIZ1 (11724087_x_at) / RFU OASL (11726364_x_at) / Fold change /veh OASL (11726364_x_at) / RFU SOX15 (11748057_x_at) / Fold change /veh SOX15 (11748057_x_at) / RFU CD79A (11719716_a_at) / Fold change /veh CD79A (11719716_a_at) / RFU HIST1H1D (11736915_at) / Fold change /veh HIST1H1D (11736915_at) / RFU CASKIN2 (11723855_a_at) / Fold change /veh CASKIN2 (11723855_a_at) / RFU LOC730098 (11760151_x_at) / Fold change /veh LOC730098 (11760151_x_at) / RFU OR4N2 (11742367_at) / Fold change /veh OR4N2 (11742367_at) / RFU PRRT2 (11749266_a_at) / Fold change /veh PRRT2 (11749266_a_at) / RFU SNX32 (11753110_a_at) / Fold change /veh SNX32 (11753110_a_at) / RFU CDHR5 (11726645_a_at) / Fold change /veh CDHR5 (11726645_a_at) / RFU RCAN1 (11760418_a_at) / Fold change /veh RCAN1 (11760418_a_at) / RFU FAM167A (11723789_a_at) / Fold change /veh FAM167A (11723789_a_at) / RFU FAM26E (11764081_at) / Fold change /veh FAM26E (11764081_at) / RFU ISYNA1 (11749810_s_at) / Fold change /veh ISYNA1 (11749810_s_at) / RFU ACY1 (11761880_at) / Fold change /veh ACY1 (11761880_at) / RFU 11764098_at / Fold change /veh 11764098_at / RFU SAMD14 (11745864_x_at) / Fold change /veh SAMD14 (11745864_x_at) / RFU NPB (11741838_a_at) / Fold change /veh NPB (11741838_a_at) / RFU TMPRSS6 (11731388_a_at) / Fold change /veh TMPRSS6 (11731388_a_at) / RFU KRTAP10-2 (11738614_at) / Fold change /veh KRTAP10-2 (11738614_at) / RFU ARHGAP8 /// PRR5-ARHGAP8 (11727945_x_at) / Fold change /veh ARHGAP8 /// PRR5-ARHGAP8 (11727945_x_at) / RFU KRTAP5-7 /// NADSYN1 (11734609_at) / Fold change /veh KRTAP5-7 /// NADSYN1 (11734609_at) / RFU RASL12 (11751679_a_at) / Fold change /veh RASL12 (11751679_a_at) / RFU CDKN2B (11736163_a_at) / Fold change /veh CDKN2B (11736163_a_at) / RFU PRF1 (11729649_at) / Fold change /veh PRF1 (11729649_at) / RFU, ZNF638 /// ZNF638-IT1 / Fold change vs veh, ZNF638 /// ZNF638-IT1 / RFU, PANK3 / Fold change vs veh, PANK3 / RFU, SH3YL1 / Fold change vs veh, SH3YL1 / RFU, ZEB2 / Fold change vs veh, ZEB2 / RFU, NRIP1 / Fold change vs veh, NRIP1 / RFU, PTTG1IP / Fold change vs veh, PTTG1IP / RFU, CAPN2 / Fold change vs veh, CAPN2 / RFU, MED14 / Fold change vs veh, MED14 / RFU, SNORA58 / Fold change vs veh, SNORA58 / RFU, C1orf63 / Fold change vs veh, C1orf63 / RFU, LRRFIP1 / Fold change vs veh, LRRFIP1 / RFU, NDUFAF7 / Fold change vs veh, NDUFAF7 / RFU, SLC12A2 / Fold change vs veh, SLC12A2 / RFU, IBTK / Fold change vs veh, IBTK / RFU, ESF1 / Fold change vs veh, ESF1 / Fold change vs veh, TMEM50B / RFU, TAOK1 / Fold change vs veh, TAOK1 / RFU, ACBD3 / Fold change vs veh, ACBD3 / RFU, TMA16 / Fold change vs veh, TMA16 / RFU, RWDD3 / Fold change vs veh, RWDD3 / RFU, BCAT1 / Fold change vs veh, BCAT1 / RFU, EDEM3 / Fold change vs veh, EDEM3 / RFU, TMEM33 / Fold change vs veh, TMEM33 / RFU, WDR75 / Fold change vs veh, WDR75 / RFU, AHCTF1 / Fold change vs veh, AHCTF1 / RFU, TFRC / Fold change vs veh, TFRC / RFU, ZDHHC17 / Fold change vs veh, ZDHHC17 / RFU, NOM1 / Fold change vs veh, NOM1 / RFU, ARL8B / Fold change vs veh, ARL8B / RFU, ZBTB11 / Fold change vs veh, ZBTB11 / RFU, TAMM41 / Fold change vs veh, TAMM41 / RFU, KIAA1704 /// LOC100996395 / Fold change vs veh, KIAA1704 /// LOC100996395 / RFU, ING1 / Fold change vs veh, ING1 / RFU, TRMT61B / Fold change vs veh, TRMT61B / RFU, FUBP3 / Fold change vs veh, FUBP3 / RFU, TP53 / Fold change vs veh, TP53 / RFU, TNKS2 / Fold change vs veh, TNKS2 / RFU, ZFP14 / Fold change vs veh, ZFP14 / RFU, ACTR2 / Fold change vs veh, ACTR2 / RFU, PPP3R1 / Fold change vs veh, PPP3R1 / RFU, PIK3R1 / Fold change vs veh, PIK3R1 / RFU, HNRNPA1 / Fold change vs veh, HNRNPA1 / RFU, RNF170 / Fold change vs veh, RNF170 / RFU, ZNF28 / Fold change vs veh, ZNF28 / RFU, RNGTT / Fold change vs veh, RNGTT / RFU, OGT / Fold change vs veh, OGT / RFU, BRD1 / Fold change vs veh, BRD1 / RFU, MARS / Fold change vs veh, MARS / RFU, ZNF655 / Fold change vs veh, ZNF655 / RFU, FAHD1 / Fold change vs veh, FAHD1 / RFU, BDP1 / Fold change vs veh, BDP1 / RFU, LRRCC1 / Fold change vs veh, LRRCC1 / RFU, ARID1A / Fold change vs veh, ARID1A / RFU, ZNF146 / Fold change vs veh, ZNF146 / RFU, ZNF330 / Fold change vs veh, ZNF330 / RFU, GPN3 / Fold change vs veh, GPN3 / RFU, C9orf123 / Fold change vs veh, C9orf123 / RFU, N4BP2L2 / Fold change vs veh, N4BP2L2 / RFU, ARFIP1 / Fold change vs veh, ARFIP1 / RFU, FAM179B / Fold change vs veh, FAM179B / RFU, BCL10 / Fold change vs veh, BCL10 / RFU, UHRF1BP1L / Fold change vs veh, UHRF1BP1L / RFU, BET1 / Fold change vs veh, BET1 / RFU, CNOT2 / Fold change vs veh, CNOT2 / RFU, ZNF268 / Fold change vs veh, ZNF268 / Fold change vs veh, ZNF507 / RFU, DGCR2 / Fold change vs veh, DGCR2 / RFU, WDSUB1 / Fold change vs veh, WDSUB1 / Fold change vs veh, HSP90B1 /// MIR3652 / RFU, ADSS / Fold change vs veh, ADSS / RFU, GK / Fold change vs veh, GK / RFU, ZNF148 / Fold change vs veh, ZNF148 / RFU, TAF9 / Fold change vs veh, TAF9 / RFU, SLC1A5 / Fold change vs veh, SLC1A5 / RFU, SLMO2 / Fold change vs veh, SLMO2 / RFU, ABCC4 / Fold change vs veh, ABCC4 / RFU, LOC101060439 /// RAP1B / Fold change vs veh, LOC101060439 /// RAP1B / RFU, RFX7 / Fold change vs veh, RFX7 / RFU, GTPBP10 / Fold change vs veh, GTPBP10 / RFU, CNEP1R1 / Fold change vs veh, CNEP1R1 / RFU, BIVM-ERCC5 /// ERCC5 / Fold change vs veh, BIVM-ERCC5 /// ERCC5 / RFU, ILF3 / Fold change vs veh, ILF3 / RFU 11762660_at / Fold change /veh 11762660_at / RFU VCAN (11757783_s_at) / Fold change /veh VCAN (11757783_s_at) / RFU DDX43 (11728927_at) / Fold change /veh DDX43 (11728927_at) / RFU KRT8 (11758188_x_at) / Fold change /veh KRT8 (11758188_x_at) / RFU NKD1 (11759106_at) / Fold change /veh NKD1 (11759106_at) / RFU SRD5A1 (11742802_a_at) / Fold change /veh SRD5A1 (11742802_a_at) / RFU TPSAB1 /// TPSB2 (11721975_s_at) / Fold change /veh TPSAB1 /// TPSB2 (11721975_s_at) / RFU GSTM3 (11746129_a_at) / Fold change /veh GSTM3 (11746129_a_at) / RFU IL23R (11737362_x_at) / Fold change /veh IL23R (11737362_x_at) / RFU TMEM51 (11727254_a_at) / Fold change /veh TMEM51 (11727254_a_at) / RFU PIWIL2 (11732686_x_at) / Fold change /veh PIWIL2 (11732686_x_at) / RFU ORM1 (11744905_x_at) / Fold change /veh ORM1 (11744905_x_at) / RFU CCDC152 (11743942_at) / Fold change /veh CCDC152 (11743942_at) / RFU ECM1 (11717891_a_at) / Fold change /veh ECM1 (11717891_a_at) / RFU IL23R (11748794_a_at) / Fold change /veh IL23R (11748794_a_at) / RFU TNFAIP8L3 (11732012_x_at) / Fold change /veh TNFAIP8L3 (11732012_x_at) / RFU MBOAT4 (11741988_at) / Fold change /veh MBOAT4 (11741988_at) / RFU 11764193_at / Fold change /veh 11764193_at / RFU TMEM53 (11763286_at) / Fold change /veh TMEM53 (11763286_at) / RFU MAGEB2 (11727129_at) / Fold change /veh MAGEB2 (11727129_at) / RFU TMEM200A (11744735_a_at) / Fold change /veh TMEM200A (11744735_a_at) / RFU CCDC152 (11751479_a_at) / Fold change /veh CCDC152 (11751479_a_at) / RFU FAM211A (11726209_a_at) / Fold change /veh FAM211A (11726209_a_at) / RFU RGS16 (11746705_a_at) / Fold change /veh RGS16 (11746705_a_at) / RFU VCAN (11755009_s_at) / Fold change /veh VCAN (11755009_s_at) / RFU RHOB (11743442_s_at) / Fold change /veh RHOB (11743442_s_at) / RFU RGS16 (11720943_a_at) / Fold change /veh RGS16 (11720943_a_at) / RFU RGS16 (11720944_at) / Fold change /veh RGS16 (11720944_at) / RFU, VPS4B / Fold change vs veh, VPS4B / RFU, CREB1 / Fold change vs veh, CREB1 / RFU, DNAJC13 / Fold change vs veh, DNAJC13 / RFU, GNAQ / Fold change vs veh, GNAQ / RFU, CDK5R1 / Fold change vs veh, CDK5R1 / RFU, ZRANB3 / Fold change vs veh, ZRANB3 / RFU, CUL4A / Fold change vs veh, CUL4A / RFU, CCNY / Fold change vs veh, CCNY / RFU, UFL1 / Fold change vs veh, UFL1 / RFU, COG3 / Fold change vs veh, COG3 / RFU, DIAPH2 / Fold change vs veh, DIAPH2 / RFU, SKA2 / Fold change vs veh, SKA2 / RFU, AFF3 / Fold change vs veh, AFF3 / RFU, LMF1 / Fold change vs veh, LMF1 / RFU, IPO11 / Fold change vs veh, IPO11 / RFU, DFFB / Fold change vs veh, DFFB / RFU, FOXP1 / Fold change vs veh, FOXP1 / RFU, CARD8 / Fold change vs veh, CARD8 / RFU, STRN3 / Fold change vs veh, STRN3 / RFU, ADK / Fold change vs veh, ADK / RFU, RASSF2 / Fold change vs veh, RASSF2 / RFU, WIPF1 / Fold change vs veh, WIPF1 / RFU, LARP1B / Fold change vs veh, LARP1B / RFU, RASA1 / Fold change vs veh, RASA1 / RFU, RB1 / Fold change vs veh, RB1 / RFU, PPFIA1 / Fold change vs veh, PPFIA1 / RFU, MAT2A / Fold change vs veh, MAT2A / RFU, CCT5 / Fold change vs veh, CCT5 / RFU, WDR92 / Fold change vs veh, WDR92 / RFU, CUX1 / Fold change vs veh, CUX1 / RFU, TTC7A / Fold change vs veh, TTC7A / RFU, TMEM135 / Fold change vs veh, TMEM135 / RFU, DEPTOR / Fold change vs veh, DEPTOR / RFU, CPM / Fold change vs veh, CPM / RFU, DNAJB6 / Fold change vs veh, DNAJB6 / RFU, CACNA2D3 / Fold change vs veh, CACNA2D3 / RFU, DTX4 / Fold change vs veh, DTX4 / RFU, TFCP2 / Fold change vs veh, TFCP2 / RFU, GMCL1 /// GMCL1P1 / Fold change vs veh, GMCL1 /// GMCL1P1 / RFU, AEBP2 / Fold change vs veh, AEBP2 / RFU, SNHG1 /// SNORD22 /// SNORD25 /// SNORD26 /// SNORD27 /// SNORD28 /// SNORD29 /// SNORD31 / Fold change vs veh, SNHG1 /// SNORD22 /// SNORD25 /// SNORD26 /// SNORD27 /// SNORD28 /// SNORD29 /// SNORD31 / Fold change (Aza/veh), C12orf56 (ProbeSet 11735607_a_at) / Fold change (ACY-1035/veh), C12orf56 (ProbeSet 11735607_a_at) / Fold change (Aza/veh), FGFR1OP (ProbeSet 11751329_s_at) / Fold change (ACY-1035/veh), FGFR1OP (ProbeSet 11751329_s_at) / Fold change (Aza/veh), VPS36 (ProbeSet 11739960_a_at) / Fold change (ACY-1035/veh), VPS36 (ProbeSet 11739960_a_at) / RFU SYPL1 (11715823_x_at) / Fold change /veh SYPL1 (11715823_x_at) / RFU IGFBP7 (11715501_s_at) / Fold change /veh IGFBP7 (11715501_s_at) / RFU REEP3 (11722064_at) / Fold change /veh REEP3 (11722064_at) / RFU IGLL1 (11728026_x_at) / Fold change /veh IGLL1 (11728026_x_at): dose or concentration left out as unconfirmed", "settings": "ProbeSet 11763166_a_at; LIST B", "data": [{"smiles": "Nc1ccc(-c2cccs2)cc1NC(=O)c1ccc2c(c1)cc(C1CC1)n2CCN1CCOCC1", "note": "[ACY-1035]", "values": [{"measurement": "RFU, MARS", "result": 48.43, "unit": "RFU"}]}]}
